# Source: ChEMBL document CHEMBL3045741, “Antithyroid agents and QSAR studies: inhibition of lactoperoxidase-catalyzed iodination reaction by isochromene-1-thiones” (Med Chem Res, 2013)
# Activity calls are given as the source filed them. The rule behind the calls is not given here.
# How the values were obtained:
# Lactoperoxidase = Lactoperoxidase (Bos taurus, UniProt P80025); assay: Inhibition of Bos taurus (bovine) milk lactoperoxidase-catalyzed iodination of L-tyrosine substrate by reverse phase HPLC analysis
# [1] = molecular target: Lactoperoxidase (Bos taurus) (UniProt P80025); assay: Non-competitive inhibition of Bos taurus (bovine) milk lactoperoxidase using varying concentration of L-tyrosine and fixed concentration of H2O2 as substrate by Lineweaver-burk plot analysis
# [2] = molecular target: Lactoperoxidase (Bos taurus) (UniProt P80025); assay: Non-competitive inhibition of Bos taurus (bovine) milk lactoperoxidase using fixed concentration of L-tyrosine and varying concentration of H2O2 as substrate by Lineweaver-burk plot analysis
# [3] = molecular target: Lactoperoxidase (Bos taurus) (UniProt P80025); assay: Irreversible inhibition of Bos taurus (bovine) milk lactoperoxidase using L-tyrosine as substrate at 30 uM in presence of 0.08 to 0.8 mM H2O2 by reverse phase HPLC analysis
IC50 (Lactoperoxidase) [µM],further results,Compound
> 200,,COc1ccc(-c2cc3ccccc3c(=O)o2)cc1
26.4,,S=c1oc(-c2ccc(Cl)cc2)cc2ccccc12
21.9,,CC(C)(C)c1cc2ccccc2c(=S)o1
5.5,,S=c1oc(C2CCCCC2)cc2ccccc12
13.9,,S=c1oc(-c2ccccc2)cc2ccccc12
26.5,,S=c1oc(-c2ccoc2)cc2ccccc12
34.6,,O=c1oc(-c2cccc3ccccc23)cc2ccccc12
14.3,,S=c1oc(-c2cccs2)cc2ccccc12
8.4,,Cn1cc[nH]c1=S [METHIMAZOLE]
> 200,,O=c1oc(-c2ccccc2)cc2ccccc12
105,,O=c1oc(-c2ccc(Cl)cc2)cc2ccccc12
5.1,inhibition [1]: Active; inhibition [2]: Active; inhibition [3]: Active,S=c1oc(-c2cccc3ccccc23)cc2ccccc12
17.8,,S=c1oc(-c2ccco2)cc2ccccc12
17.4,,CCCCc1cc2ccccc2c(=S)o1
6.2,inhibition [1]: Active; inhibition [2]: Active,Cc1ccc(-c2cc3ccccc3c(=S)o2)cc1
8.4,inhibition [3]: Active,COc1ccc(-c2cc3ccccc3c(=S)o2)cc1
93.8,,Cc1ccc(-c2cc3ccccc3c(=O)o2)cc1
> 200,,O=c1oc(-c2ccco2)cc2ccccc12
